Data taken from US6407098B1, “Fungicidal aza-heterocycloalkenes” (Bayer Aktiengesellschaft, priority 1995, dated 2002).

Assays:
Venturia inaequalis = test: Venturia test (apple)/protective; format: in vivo; details: protective, active compound concentration 500 ppm, evaluation 12 days after inoculation
Protocol: Venturia test (apple)/protective Solvent: 12.5 parts by weight of acetone Emulsifier: 0.3 parts by weight of alkylaryl polyglycol ether To produce a suitable preparation of active compound, 1 part by weight of active compound is mixed with the stated amounts of solvent and emulsifier, and the concentrate is diluted with water to the desired concentration. To test for protective activity, young plants are sprayed with the preparation of active compound until dripping wet. After the spray coating has dried on, the plants are inoculated with an aqueous conidia suspension of the apple scab causative organism Venturia inaequalis and then remain in an incubation cabin at 20° C. and 100% relative atmospheric humidity for 1 day. The plants are then placed in a greenhouse at 20° C. and a relative atmospheric humidity of about 70%. Evaluation is carried out 12 days after the inoculation.

[1] = test system: Erysiphe graminis f.sp. hordei; test: Erysiphe test (barley)/protective; format: in vivo; details: protective, active compound concentration 500 ppm, evaluation 7 days after inoculation
Protocol: Erysiphe test (barley)/protective Solvent: 12.5 parts by weight of N-methyl-pyrrolidone Emulsifier: 0.3 parts by weight of alkylaryl polyglycol ether To produce a suitable preparation of active compound, 1 part by weight of active compound is mixed with the stated amounts of solvent and emulsifier, and the concentrate is diluted with water to the desired concentration. To test for protective activity, young plants are sprayed with the preparation of active compound at the stated application rate. After the spray coating has dried on, the plants are dusted with spores of Erysiphe graminis f.sp. hordei. The plants are placed in a greenhouse at a temperature of about 20° C. and a relative atmospheric humidity of about 80%, in order to promote the development of powdery mildew pustules. Evaluation is carried out 7 days after the inoculation.

Podosphaera leucotricha = test: Podosphaera test (apple)/protective; format: in vivo; details: protective, active compound concentration 100 ppm, evaluation 10 days after inoculation
Protocol: Podosphaera test (apple)/protective Solvent: 4.7 parts by weight of acetone Emulsifier: 0.3 parts by weight of alkylaryl polyglycol ether To produce a suitable preparation of active compound, 1 part by weight of active compound is mixed with the stated amounts of solvent and emulsifier, and the concentrate is diluted with water to the desired concentration. To test for protective activity, young plants are sprayed with the preparation of active compound. After the spray coating has dried on, the plants are inoculated by dusting with conidia of the causative organism of apple mildew (Podosphaera leucotricha). The plants are then placed in a greenhouse at 23° C. and a relative atmospheric humidity of about 70%. Evaluation is carried out 10 days after the inoculation.

Sphaerotheca fuliginea = test: Sphaerotheca test (cucumber)/protective; format: in vivo; details: protective, active compound concentration 100 ppm, evaluation 10 days after inoculation
Protocol: Sphaerotheca test (cucumber)/protective Solvent: 4.7 parts by weight of acetone Emulsifier: 0.3 parts by weight of alkylaryl polyglycol ether To produce a suitable preparation of active compound, 1 part by weight of active compound is mixed with the stated amounts of solvent and emulsifier, and the concentrate is diluted with water to the desired concentration. To test for protective activity, young plants are sprayed with the preparation of active compound. After the spray coating has dried on, the plants are dusted with conidia of the fungus Sphaerotheca fuliginea. The plants are then placed in a greenhouse at 23 to 24° C. and at a relative atmospheric humidity of about 75%. Evaluation is carried out 10 days after the inoculation.

logP = format: physicochemical

logP (logP) | Compound | degree of action (Venturia inaequalis) [%] | degree of action [1] [%] | degree of action (Podosphaera leucotricha) [%] | degree of action (Sphaerotheca fuliginea) [%]
– | CO/N=C(/C1=NOCCS1)c1ccccc1COc1ccccc1C [Example I-2, 3-{1-[2-(2-methylphenoxymethyl)phenyl]-1-(methoximino)methyl}-5,6dihydro4H-1,4,2-oxathiazine] | 100 | 90 | 90 | 96
3.54 | CON=C(C1=NN(C)CCO1)c1ccccc1COc1ccccc1C [Example I-3, 2-{1-methoximino-1-[2-(2-methylphenoxymethyl)-phenyl]-methyl}-4-methyl-5,6-dihydro4H-1,3,4oxadiazine] | – | – | – | –
– | CO/N=C(/C1=NOCCN1)c1ccccc1COc1ccccc1C [Example I-1, 3-{1-[2-(2-methylphenoxymethyl)-phenyl]-1-(methoximino)-methyl}-5,6-dihydro-4H-1,2,4-oxadiazine] | 100 | 90 | – | –
